Experimental data reported in PubChem BioAssay (NCI).
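1) Cells in 96-well plates. 2) Compound, 48 h, 5 concentrations. 3) Linear interpolation between surrounding doses. 4) Unreached endpoint = highest concentration. TGI is the concentration that stops growth completely.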

Columns and labels:
Assay in all cases: NCI anticancer screen, dose series, 48 h
HL-60(TB) leukemia = test system: HL-60(TB) leukemia
HOP-62 NSCLC = test system: HOP-62 NSCLC
NCI-H226 lung = test system: NCI-H226 lung
NCI/ADR-RES ovarian = test system: NCI/ADR-RES ovarian
OVCAR-5 ovarian = test system: OVCAR-5 ovarian
RXF 393 renal = test system: RXF 393 renal
SF-295 CNS = test system: SF-295 CNS
SNB-75 CNS = test system: SNB-75 CNS
TK-10 renal = test system: TK-10 renal
A498 renal = test system: A498 renal

CCOC(=O)C(Cc1ccc(OC(=O)OC(C)(C)C)cc1)NC(=O)OC(C)(C)C (stereo not drawn)
TGI (HL-60(TB) leukemia): 80.1 µM | TGI (HOP-62 NSCLC): > 100 µM | TGI (NCI-H226 lung): > 100 µM | TGI (NCI/ADR-RES ovarian): > 100 µM | TGI (OVCAR-5 ovarian): > 100 µM | TGI (RXF 393 renal): > 100 µM | TGI (SF-295 CNS): > 100 µM | TGI (SNB-75 CNS): 62.6 µM | TGI (TK-10 renal): > 100 µM

Clc1ccc(-c2cn3c(nc4ccccc43)c(/C=C/c3ccco3)n2)cc1
TGI (A498 renal): 96.3 µM | TGI (HL-60(TB) leukemia): 41.7 µM | TGI (HOP-62 NSCLC): > 100 µM | TGI (NCI-H226 lung): > 100 µM | TGI (NCI/ADR-RES ovarian): > 100 µM | TGI (OVCAR-5 ovarian): > 100 µM | TGI (RXF 393 renal): > 100 µM | TGI (SNB-75 CNS): 83.5 µM | TGI (TK-10 renal): 82 µM

C[C@@H]1C(=O)C[C@H]2C(C)(C)CCC[C@]2(C)[C@@]1(O)CCc1ccoc1
TGI (A498 renal): > 100 µM | TGI (HL-60(TB) leukemia): > 100 µM | TGI (HOP-62 NSCLC): > 100 µM | TGI (NCI-H226 lung): > 100 µM | TGI (OVCAR-5 ovarian): > 100 µM | TGI (RXF 393 renal): > 100 µM | TGI (SF-295 CNS): > 100 µM | TGI (SNB-75 CNS): > 100 µM | TGI (TK-10 renal): > 100 µM

Cc1sc2c(c1C)/C(=N\O)c1cccn1-2
TGI (A498 renal): 75.9 µM | TGI (HOP-62 NSCLC): 63.3 µM | TGI (NCI-H226 lung): > 100 µM | TGI (NCI/ADR-RES ovarian): > 100 µM | TGI (OVCAR-5 ovarian): > 100 µM | TGI (RXF 393 renal): 65.5 µM | TGI (SF-295 CNS): > 100 µM | TGI (SNB-75 CNS): 41.1 µM | TGI (TK-10 renal): > 100 µM

CCCCCCCCCCCCCCCCOP(=O)(O)OCC(N)C(=O)O (stereo not drawn)
TGI (A498 renal): 34.8 µM | TGI (HOP-62 NSCLC): 45.9 µM | TGI (NCI-H226 lung): 50.4 µM | TGI (NCI/ADR-RES ovarian): > 100 µM | TGI (OVCAR-5 ovarian): 45.1 µM | TGI (RXF 393 renal): 55 µM | TGI (SF-295 CNS): 31.3 µM | TGI (SNB-75 CNS): 45.7 µM | TGI (TK-10 renal): 16.5 µM

O=c1ccn(C2OC(CO)C(O)C2F)c(=O)n1Cc1ccccc1 (stereo not drawn)
TGI (HL-60(TB) leukemia): > 100 µM | TGI (HOP-62 NSCLC): > 100 µM | TGI (NCI-H226 lung): > 100 µM | TGI (NCI/ADR-RES ovarian): > 100 µM | TGI (OVCAR-5 ovarian): > 100 µM | TGI (RXF 393 renal): > 100 µM | TGI (SF-295 CNS): > 100 µM | TGI (SNB-75 CNS): > 100 µM | TGI (TK-10 renal): > 100 µM

O=C(/C=C/c1cccc(Oc2ccccc2)c1)NCc1ccc(C(=O)NCCc2ccccc2)cc1
TGI (A498 renal): > 100 µM | TGI (HOP-62 NSCLC): > 100 µM | TGI (NCI-H226 lung): > 100 µM | TGI (NCI/ADR-RES ovarian): > 100 µM | TGI (OVCAR-5 ovarian): > 100 µM | TGI (RXF 393 renal): 61.1 µM | TGI (SF-295 CNS): > 100 µM | TGI (SNB-75 CNS): 92.6 µM | TGI (TK-10 renal): > 100 µM

CC(O)(P(=O)(O)O)P(=O)(O)OCC(O)CN1CCOCC1 (stereo not drawn)
TGI (A498 renal): > 100 µM | TGI (HL-60(TB) leukemia): > 100 µM | TGI (HOP-62 NSCLC): > 100 µM | TGI (NCI-H226 lung): > 100 µM | TGI (NCI/ADR-RES ovarian): > 100 µM | TGI (OVCAR-5 ovarian): > 100 µM | TGI (RXF 393 renal): > 100 µM | TGI (SF-295 CNS): > 100 µM | TGI (TK-10 renal): > 100 µM

O=c1[nH]cc(Cl)c(=O)[nH]1
TGI (A498 renal): > 100 µM | TGI (HL-60(TB) leukemia): > 100 µM | TGI (NCI-H226 lung): > 100 µM | TGI (NCI/ADR-RES ovarian): > 100 µM | TGI (OVCAR-5 ovarian): > 100 µM | TGI (RXF 393 renal): > 100 µM | TGI (SF-295 CNS): > 100 µM | TGI (SNB-75 CNS): > 100 µM | TGI (TK-10 renal): > 100 µM

CCOC(=O)c1nc2ccc(C(F)(F)F)cc2nc1Nc1ccc(Cl)c(Cl)c1
TGI (A498 renal): > 100 µM | TGI (HL-60(TB) leukemia): > 100 µM | TGI (HOP-62 NSCLC): > 100 µM | TGI (NCI/ADR-RES ovarian): > 100 µM | TGI (OVCAR-5 ovarian): > 100 µM | TGI (RXF 393 renal): > 100 µM | TGI (SF-295 CNS): > 100 µM | TGI (SNB-75 CNS): > 100 µM | TGI (TK-10 renal): > 100 µM

O=C(c1ccc(Cl)cc1)N(C(=S)N1CCN(c2ccccn2)CC1)C1CCCCC1
TGI (HL-60(TB) leukemia): > 100 µM | TGI (HOP-62 NSCLC): > 100 µM | TGI (NCI-H226 lung): 70.5 µM | TGI (OVCAR-5 ovarian): > 100 µM | TGI (RXF 393 renal): > 100 µM | TGI (SF-295 CNS): > 100 µM | TGI (SNB-75 CNS): > 100 µM | TGI (TK-10 renal): > 100 µM
